The values that follow come from patent publication US9221822B2, “Thiazolopyrimidine modulators as immunosuppressive agents” (Katholieke Universiteit Leuven, K.U.Leuven R&D, priority 2009, dated 2015).

SMILES strings stand for the structures. pIC50: −log10 of the molar value.

The test system of one experiment is Human peripheral blood mononuclear cells (PBMCs) as Responder cells, RPMI 1788 Stimulator cells. The experiment can be described thus: Mixed Lymphocyte Reaction (MLR) test. To be noted: Homo sapiens, RPMI-1788, lowest concentration giving 50% inhibition of the MLR; 6 days coculture, 3H-thymidine incorporation. Type of experiment: cell-based. As to the method: Human peripheral blood mononuclear cells (PBMCs) were isolated from buffy coats, obtained from healthy blood donors by Ficoll (Lymphoprep, Axis-Shield PoC AS, Oslo, Norway) density-gradient centrifugation. The cells at the Ficoll-plasma interface were washed three times and used as “Responder” cells. RPMI 1788 (ATCC, N^o CCL-156) cells were treated with mitomycin C (Kyowa, Nycomed, Brussel, Belgium) and used as “Stimulator” cells. Responder cells (0.12×10^6), Stimulator cells (0.045×10^6) and compounds (in different concentrations) were cocultured for 6 days in RPMI 1640 medium (BioWhittaker, Lonza, Belgium) supplemented with 10% fetal calf serum, 100 U/ml Geneticin (Gibco, LifeTechnologies, UK). Cells were cultured in triplicate in flat-bottomed 96-well microtiter tissue culture plates (TTP, Switzerland). After 5 days, cells were pulsed with 1 μCi of methyl-^3H thymidine (MP Biomedicals, USA), harvested 18 h later on glass filter paper and counted. Proliferation values were expressed as counts per minute (cpm), and converted to % inhibition with respect to a blank MLR test (identical but without added compound). […]
(Incorporation of labelled thymidine or its analogues reports DNA synthesis.)
By pIC50 is commonly meant the IC50 on a negative log10 scale, so that one unit is a factor of ten. Turning to `Nc1nc(N2CCN(C(=O)COc3ccc(Cl)cc3)CC2)c2nc(C3CC3)sc2n1` [Example 119, 5-amino-2-cyclopropyl-7-[4-(4-chlorophenoxyacetyl)piperazin-1-yl]-thiazolo[5,4-d]pyrimidine], the negative logarithm of the IC50 (pIC50) was 6.22. Compound `Nc1nc(N2CCN(C(=O)COc3ccc(Cl)cc3)CC2)c2nc(C3CCCCC3)sc2n1` [Example 120, 5-amino-7-[4-(4-chlorophenoxyacetyl)piperazin-1-yl]-2-cyclohexylthiazolo[5,4-d]pyrimidine] showed a pIC50 of 6.08. Same read-out and setting: to `Nc1nc(N2CCN(C(=O)COc3ccc(Cl)cc3)CC2)c2nc(Cc3ccc(Cl)cc3)sc2n1` [Example 122, 5-amino-7-[4-(4-chlorophenoxyacetyl)piperazin-1-yl]-2-(4-chlorophenylmethyl)thiazolo[5,4-d]pyrimidine] belongs less than 5.00. `Nc1nc(N2CCN(C(=O)COc3ccc(Cl)cc3)CC2)c2nc(-c3ccc(Cl)cc3)sc2n1` [Example 123, 5-amino-7-[4-(4-chlorophenoxyacetyl)piperazin-1-yl]-2-(4-chlorophenyl)thiazolo[5,4-d]pyrimidine] showed a pIC50 of 6.59. For the compound `COc1cccc(-c2nc3c(N4CCN(C(=O)COc5ccc(Cl)cc5)CC4)nc(N)nc3s2)c1` [Example 124, 5-amino-7-[4-(4-chlorophenoxyacetyl)piperazin-1-yl]-2-(3-methoxyphenyl)thiazolo[5,4-d]pyrimidine], the pIC50 is 6.92. `C[S+]([O-])c1nc2c(N3CCN(C(=O)COc4ccc(Cl)cc4)CC3)nc(N)nc2s1` (stereo not drawn) [Example 126, 5-amino-7-[4-(4-chlorophenoxyacetyl)piperazin-1-yl]-2-methylsulfinyl-thiazolo[5,4-d]pyrimidine]: the pIC50 is 5.58. With `Nc1nc(N2CCN(C(=O)COc3ccc(Cl)cc3)CC2)c2nc(Nc3ccc(F)cc3)sc2n1` [Example 127, 5-amino-7-[4-(4-chlorophenoxyacetyl)piperazin-1-yl]-2-(4-fluorophenylamino)-thiazolo[5,4-d]pyrimidine], the pIC50 is 5.17. With `Nc1nc(N2CCN(C(=O)COc3cccc([N+](=O)[O-])c3)CC2)c2nc(-c3ccc(F)cc3)sc2n1` [Example 129, 5-amino-2-(4-fluorophenyl)-7-(4-[2-(3-nitrophenoxy)acetyl]-piperazin-1-yl)-thiazolo[5,4-d]pyrimidine], the pIC50 is 6.54. `Nc1nc(N2CCN(C(=O)COc3ccccc3)CC2)c2nc(-c3ccc(F)cc3)sc2n1` [Example 130, 5-amino-2-(4-fluorophenyl)-7-(4-(2-phenoxyacetyl)-piperazin-1-yl)-thiazolo[5,4-d]pyrimidine] gave a negative-log IC50 (pIC50) of 6.46. On the same count and under the same terms, to `Nc1nc(N2CCN(C(=O)COc3cccc([N+](=O)[O-])c3)CC2)c2nc(CCc3ccc(F)cc3)sc2n1` [Example 131, 5-amino-2-[2-(4-fluorophenyl)ethyl]-7-(4-[2-(3-nitrophenoxy)acetyl]piperazin-1-yl)-thiazolo[5,4-d]pyrimidine] belongs 5.49; to `Nc1nc(N2CCN(C(=O)Cc3ccc(Cl)cc3)CC2)c2nc(CCc3ccc(F)cc3)sc2n1` [Example 132, 5-amino-2-[2-(4-fluorophenyl)ethyl]-7-(4-[2-(4-chlorophenyl)acetyl]piperazin-1-yl)-thiazolo[5,4-d]pyrimidine], 6.36.

`Cc1cccc(NC(=O)N2CCN(c3nc(N)nc4sc(CCc5ccc(F)cc5)nc34)CC2)c1` [Example 133, 5-amino-2-[2-(4-fluorophenyl)ethyl]-7-(4-m-tolylcarbamoylpiperazin-1-yl)-thiazolo[5,4-d]pyrimidine] gave a pIC50 of less than 5.00. `Nc1nc(N2CCN(C(=O)COc3ccccc3)CC2)c2nc(CCc3ccc(F)cc3)sc2n1` [Example 134, 5-amino-2-[2-(4-fluorophenyl)ethyl]-7-(4-[2-phenoxyacetyl]piperazin-1-yl)-thiazolo[5,4-d]pyrimidine] had a pIC50 of 5.31. Consider `Nc1nc(N2CCN(C(=O)c3ccc(Cl)cc3)CC2)c2nc(CCc3ccc(F)cc3)sc2n1` [Example 135, 5-amino-2-[2-(4-fluorophenyl)ethyl]-7-[4-(4-chlorobenzoyl)piperazin-1-yl]-thiazolo[5,4-d]pyrimidine], for which the negative-log IC50 (pIC50) was less than 5.00. In the case of `Nc1nc(N2CCN(C(=O)CCc3ccccc3)CC2)c2nc(CCc3ccc(F)cc3)sc2n1` [Example 136, 5-amino-2-[2-(4-fluorophenyl)ethyl]-7-[4-(3-phenylpropionyl)piperazin-1-yl]-thiazolo[5,4-d]pyrimidine], the pIC50 is less than 5.00. With `Nc1nc(N2CCN(S(=O)(=O)Cc3ccccc3)CC2)c2nc(CCc3ccc(F)cc3)sc2n1` [Example 137, 5-amino-2-[2-(4-fluorophenyl)ethyl]-7-[4-phenylmethanesulfonylpiperazin-1-yl]-thiazolo[5,4-d]pyrimidine], the pIC50 is 5.18.

Compound `Nc1nc(N2CCCN(C(=O)COc3ccc(Cl)cc3)CC2)c2nc(CCc3ccc(F)cc3)sc2n1` [Example 138, 5-amino-2-[2-(4-fluorophenyl)ethyl]-7-(4-[2-(4-chlorophenoxy)acetyl]homopiperazin-1-yl)-thiazolo[5,4-d]pyrimidine] showed a pIC50 of 5.68. Still for that read-out and setting: the same measure for `CN(C(=O)CN1CCN(c2nc(N)nc3sc(CCc4ccc(F)cc4)nc23)CC1)c1ccccc1` [Example 139, 5-amino-2-[2-(4-fluorophenyl)ethyl]-7-(4-[(methylphenylcarbamoyl)-methyl]piperazin-1-yl)-thiazolo[5,4-d]pyrimidine]: 5.48; for `Nc1nc(N2CCN(c3nccs3)CC2)c2nc(CCc3ccc(F)cc3)sc2n1` [Example 140, 5-amino-2-[2-(4-fluorophenyl)ethyl]-7-(4-thiazol-2-yl-piperazine-1-yl)-thiazolo[5,4-d]pyrimidine]: 5.05. `Nc1nc(N2CCN(CC(=O)NCCc3ccccc3)CC2)c2nc(CCc3ccc(F)cc3)sc2n1` [Example 141, 5-amino-2-[2-(4-fluorophenyl)ethyl]-7-(4-(phenethylcarbamoyl-methyl)piperazin-1-yl)-thiazolo[5,4-d]pyrimidine] gave a negative logarithm of the IC50 (pIC50) of 5.85. Compound `Nc1nc(N2CC[C@@H](NC(=O)COc3ccc(Cl)cc3)C2)c2nc(CCc3ccc(F)cc3)sc2n1` [Example 143, 5-amino-2-[2-(4-fluorophenyl)ethyl]-7-(3-(R)-[2-(4-chlorophenoxy)-acetylamino]pyrrolidin-1-yl)-thiazolo[5,4-d]pyrimidine] showed a pIC50 of less than 5.00. For the compound `Nc1nc(N2CC[C@@H](NC(=O)c3ccc(Cl)cc3)C2)c2nc(CCc3ccc(F)cc3)sc2n1` [Example 144, 5-amino-2-[2-(4-fluorophenyl)ethyl]-7-(3-(R)-(4-chlorobenzoylamino)-pyrrolidin-1-yl)-thiazolo[5,4-d]pyrimidine], the negative-log IC50 (pIC50) is 5.29.

Still in this experiment, the particulars now being: lowest concentration giving 50% inhibition of the MLR; 6 days coculture, 3H-thymidine incorporation.
In the case of `Nc1nc(N2CCN(C(=O)COc3ccc(Cl)cc3)CC2)c2nc(-c3ccc[n+]([O-])c3)sc2n1` [Example 121b, 5-amino-7-[4-(4-chlorophenoxyacetyl)piperazin-1-yl]-2-(N-oxopyridine-3-yl)thiazolo[5,4-d]pyrimidine], the pIC50 was 6.08.

`Nc1nc(N2CCN(C(=O)COc3ccc(Br)cc3)CC2)c2nc(-c3ccc(F)cc3)sc2n1` [Example 128, 5-amino-2-(4-fluorophenyl)-7-(4-[2-(4-bromophenoxy)acetyl]-piperazin-1-yl)-thiazolo[5,4-d]pyrimidine] had a pIC50 of 6.42.
